ChEMBL document CHEMBL4602657, “Design and evaluation of Nrf2 activators with 1,3,4-oxa/thiadiazole core as neuro-protective agents against oxidative stress in PC-12 cells” (Bioorg Med Chem Lett, 2020)
Values after ≈ are worked out from the molar mass of the structure shown. Active and inactive are the calls of the source. The rule behind the calls is not given here.

Experiments:
[1] = biological target: T1, Nuclear factor erythroid 2-related factor 2 (Homo sapiens) (UniProt Q16236); experiment: Activation of Nrf2 in human HepG2-ARE-C8 cells assessed as fold change at 20 uM measured after 12 hrs by luciferase reporter gene assay relative to control; assay type: cell-based
T1 sequence (whole entry): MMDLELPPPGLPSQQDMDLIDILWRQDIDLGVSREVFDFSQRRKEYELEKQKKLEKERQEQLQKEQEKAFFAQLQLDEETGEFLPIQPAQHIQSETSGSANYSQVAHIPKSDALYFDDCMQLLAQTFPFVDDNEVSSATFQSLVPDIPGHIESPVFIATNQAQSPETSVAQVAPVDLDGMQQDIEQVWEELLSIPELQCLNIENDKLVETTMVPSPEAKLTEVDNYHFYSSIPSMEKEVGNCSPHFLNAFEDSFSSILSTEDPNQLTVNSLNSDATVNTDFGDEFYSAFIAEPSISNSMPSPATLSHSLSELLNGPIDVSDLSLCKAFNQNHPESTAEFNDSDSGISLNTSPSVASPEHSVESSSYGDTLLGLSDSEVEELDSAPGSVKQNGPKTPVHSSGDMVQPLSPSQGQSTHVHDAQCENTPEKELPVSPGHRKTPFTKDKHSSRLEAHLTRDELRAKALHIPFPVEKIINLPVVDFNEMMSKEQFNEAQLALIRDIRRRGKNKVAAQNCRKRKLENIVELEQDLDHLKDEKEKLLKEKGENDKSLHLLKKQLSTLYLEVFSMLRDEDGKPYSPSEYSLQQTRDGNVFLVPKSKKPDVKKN

[2] = biological target: T1, Nuclear factor erythroid 2-related factor 2 (Homo sapiens); experiment: Activation of Nrf2 in human HepG2-ARE-C8 cells assessed as fold change at 0.1 uM measured after 12 hrs by luciferase reporter gene assay relative to control; assay type: cell-based
[3] = biological target: T1, Nuclear factor erythroid 2-related factor 2 (Homo sapiens); experiment: Activation of Nrf2 in human HepG2-ARE-C8 cells assessed as fold change at 1 uM measured after 12 hrs by luciferase reporter gene assay relative to control; assay type: cell-based
[4] = biological target: T1, Nuclear factor erythroid 2-related factor 2 (Homo sapiens); experiment: Activation of Nrf2 in human HepG2-ARE-C8 cells assessed as fold change at 40 uM measured after 12 hrs by luciferase reporter gene assay relative to control; assay type: cell-based
[5] = biological target: T1, Nuclear factor erythroid 2-related factor 2 (Homo sapiens); experiment: Activation of Nrf2 in human HepG2-ARE-C8 cells assessed as fold change at 80 uM measured after 12 hrs by luciferase reporter gene assay relative to control; assay type: cell-based
[6] = biological target: T1, Nuclear factor erythroid 2-related factor 2 (Homo sapiens); experiment: Activation of Nrf2 in human HepG2-ARE-C8 cells assessed as fold change at 10 uM measured after 12 hrs by luciferase reporter gene assay relative to control; assay type: cell-based
[7] = Lipophilicity, logD of the compound at pH 7.4; assay type: physicochemical; conditions: buffer
[8] = Intrinsic aqueous solubility of the compound; assay type: physicochemical; conditions: read-out: Intrinsic_solubility
PC-12 [9] = experiment: Upregulation of NQ-O1 protein level in rat PC12 cell incubated for 12 hrs by Western blot analysis; assay type: functional, cell-based
PC-12 [10] = experiment: Cytotoxicity against rat PC12 cells assessed as reduction in cell viability incubated for 24 hrs by MTT assay; assay type: cell-based; conditions: PC-12, 24 h
PC-12 [11] = experiment: Upregulation of Nrf2 mRNA in rat PC12 cell incubated for 12 hrs by qRT-PCR analysis; assay type: functional, cell-based
SH-SY5Y [12] = experiment: Cytotoxicity against human SH-SY5Y cells assessed as reduction in cell viability at 100 uM by MTT assay; assay type: cell-based
PC-12 [13] = experiment: Upregulation of Nrf2 protein level in rat PC12 cell incubated for 12 hrs by Western blot analysis; assay type: functional, cell-based
SH-SY5Y [14] = experiment: Neuroprotective activity in human SH-SY5Y cells assessed as reduction in H2O2-induced cell damage at 10 to 20 uM preincubated for 6 hrs followed by H2O2 treatment and measured after 12 hrs by MTT assay; assay type: functional, cell-based
PC-12 [15] = experiment: Upregulation of HO-1 mRNA in rat PC12 cell incubated for 12 hrs by qRT-PCR analysis; assay type: functional, cell-based
SH-SY5Y [16] = experiment: Neuroprotective activity in human SH-SY5Y cells assessed as reduction in H2O2-induced cell damage at 5 uM preincubated for 6 hrs followed by H2O2 treatment and measured after 12 hrs by MTT assay; assay type: functional, cell-based
[17] = Permeability of the compound by PAMPA; assay type: ADME; conditions: read-out: permeability
PC-12 [18] = experiment: Upregulation of HO-1 protein level in rat PC12 cell incubated for 12 hrs by Western blot analysis; assay type: functional, cell-based
PC-12 [19] = experiment: Upregulation of NQ-O1 mRNA in rat PC12 cell incubated for 12 hrs by qRT-PCR analysis; assay type: functional, cell-based

SMILES	fold change (FC) [1]	fold change (FC) [2]	fold change (FC) [3]	fold change (FC) [4]	fold change (FC) [5]	fold change (FC) [6]	logD [7]	solubility [8] [µM]	Activity (PC-12 [9])	IC50 (PC-12 [10]) [µM]	Activity (PC-12 [11])	Activity (SH-SY5Y [12])	Activity (PC-12 [13])	Activity (SH-SY5Y [14])	Activity (PC-12 [15])	Activity (SH-SY5Y [16])	Papp [17] [×10⁻⁶ cm/s]	Activity (PC-12 [18])	Activity (PC-12 [19])
c1ccc(-c2nnc(-c3ccc4nc[nH]c4c3)o2)cc1	9.15	1.7	2.35	13.5	19.1	6.7	–	–	–	–	–	–	–	–	–	–	–	–	–
Fc1ccc(-c2nnc(-c3ccc4nc[nH]c4c3)o2)cc1	6.83	1.58	1.28	8.73	24.4	2.6	2.89	102 (≈ 28.7 µg/mL)	–	–	–	–	–	–	–	–	–	–	–
Brc1ccc(-c2nnc(-c3ccc4nc[nH]c4c3)o2)cc1	8.08	2.05	4.85	6.23	7.98	7.98	–	–	–	–	–	–	–	–	–	–	–	–	–
Cc1ccc(-c2nnc(-c3ccc4nc[nH]c4c3)o2)cc1	3.35	1.4	1.45	4.95	6.6	3.25	–	–	–	–	–	–	–	–	–	–	–	–	–
CCCCc1ccc(-c2nnc(-c3ccc4nc[nH]c4c3)o2)cc1	15.9	1.8	6.73	24.6	19.6	14.8	–	–	Dose-dependent effect	> 100	Dose-dependent effect	Non-Toxic	Dose-dependent effect	Active	Dose-dependent effect	inactive	12.3	Dose-dependent effect	Dose-dependent effect
N#Cc1ccc(-c2nnc(-c3ccc4nc[nH]c4c3)o2)cc1	2.35	1.4	1.65	1.78	2.83	1.33	–	–	–	–	–	–	–	–	–	–	–	–	–
O=[N+]([O-])c1ccc(-c2nnc(-c3ccc4nc[nH]c4c3)o2)cc1	12.2	1.5	1.9	20.1	33.8	7.68	–	–	–	> 100	–	Non-Toxic	–	inactive	–	Active	–	–	–
O=[N+]([O-])c1ccc(-c2nnc(-c3ccc4nc[nH]c4c3)s2)cc1	17.4	2.2	5.75	22.2	24.6	19.4	–	–	–	> 500	–	Non-Toxic	–	inactive	–	Active	–	–	–
Fc1ccc(-c2nnc(-c3ccc4nc[nH]c4c3)s2)cc1	14.9	1.6	3.25	22.3	9.9	13.1	–	–	–	> 500	–	Non-Toxic	–	Active	–	inactive	–	–	–
CCCCc1ccc(-c2nnc(-c3ccc4nc[nH]c4c3)s2)cc1	1.68	1.08	2.33	1.33	1.43	2.3	–	–	–	–	–	–	–	–	–	–	–	–	–
c1ccc(-c2ccc(-c3nnc(-c4ccc5nc[nH]c5c4)o3)cc2)cc1	3.15	0.9	1.6	5.18	9.1	1.58	–	–	–	–	–	–	–	–	–	–	–	–	–
Fc1cccc(-c2nnc(-c3ccc4nc[nH]c4c3)o2)c1	1.65	1.45	2.38	1.75	1.63	1.35	–	–	–	–	–	–	–	–	–	–	–	–	–
c1ccc(-c2nnc(-c3ccc4nc[nH]c4c3)s2)cc1	8.18	1.7	2.03	13.8	15.7	8.95	–	–	–	–	–	–	–	–	–	–	–	–	–
COc1cccc(-c2nnc(-c3ccc4nc[nH]c4c3)o2)c1	1.83	1.64	1.72	2.41	7.5	1.72	–	–	–	–	–	–	–	–	–	–	–	–	–
CC(C)(C)c1cc(O)ccc1O	–	1.68	1.7	5.1	4.73	–	–	–	–	–	–	–	–	–	–	–	–	–	–
